Laboratory results as given in PMC8412337, “Alpha-single chains of collagen type VI inhibit the fibrogenic effects of triple helical collagen VI in hepatic stellate cells” (PLoS ONE, 2021).

How the values were obtained:
Type in all cases: cell-based
primary rat HSC [1] = test: DNA laddering (agarose gel electrophoresis); settings: after 24 h; 30 μg/ml CVI; serum-starved primary rat HSC
Procedure: Cells were treated 24 h with 0% FBS, CI, CVI or 10% FBS. Equal cell numbers (1.5x10^6) were used to detect oligonucleosomes using the Apoptotic DNA Ladder Kit (Boehringer Mannheim, Germany) according to the manufacturer’s instructions. The isolated DNA from each group was electrophoresed on a 1.5% Agarose-Gel at 75 V for 1.5 hours, stained with ethidium bromide and visualized via an UV light source (302 nm).

primary rat HSCs = test: Spreading and survival after serum withdrawal, phase contrast microscopy; settings: within 24 h; medium lacking FBS; 30 μg/ml collagen; three independent experiments
Procedure: (§1) Activated HSC (third passage) were serum starved for 24 h in standard medium without FBS (starving medium), followed by dissociation with 500 μl 0.05% trypsin-EDTA (Biochrom, Berlin, Germany) and neutralization with 30 ml starving medium containing 1 g/l soybean trypsin inhibitor and 1 g/l ovalbumin. Alternatively, cells were scraped carefully with a cell-scraper (Costar, Cambridge, MA, USA) to exclude any potential effect of trypsin. […] For quantification of spreading, cells that had attached were counted 12 hours after plating and spreading efficiency was determined as percentage of plated cells in each group. De-novo DNA synthesis and apoptosis were assessed by morphological criteria, Cell death detection ELISA and FACS analysis as described below. […] After blocking the cells 1h with DMEM+1% FBS, the cells were incubated with primary antibodies against a-actin (Sigma-Aldrich, Taufkirchen, Germany, #A2547; dilution 1:200) and GFAP (Sigma-Aldrich, #G9269; dilution 1:20) followed by a washing step with PBS and the incubation with fluorescence-labeled secondary antibodies (Alexa Fluor 546 & Alexa Fluor 488, Molecular Probes, Eugene, USA, #A11030 & #A11034; dilution 1:100). […]

primary rat HSC [2] = test: Cell Death Detection ELISA (oligonucleosomal DNA fragments); settings: OD of sample divided by OD of 10% FBS group, three independent experiments
Procedure: 10^5 cells were seeded in 6-well plates and treated with starving medium or medium plus CI, CVI or 10% FBS. After 24 or 48 h floating and adherent cells were pooled, and lysed with 500 μl of 1% SDS, 10 mM Tris, pH 7.4 (lysis buffer), for 30 min at 4°C. Lysed cells were transferred to 1.5 ml Eppendorf tubes and centrifuged at 13,000 rpm for 20 min, to separate low molecular weight DNA (oligonucleosome-sized fragments derived from apoptotic cells) from high molecular weight DNA (from viable cells). 400 μl of the supernatant containing oligonucleosomes were transferred to another Eppendorf tube and diluted 1:5 with lysis buffer. 100 μl aliquots were used for the Cell Death Detection ELISA, which was performed according to the manufacturer’s instructions (Boehringer Mannheim, Germany). In brief, antibodies against histones were coated onto 96-wells, 100 μl lysate-samples containing oligonucleotides and histones were added and incubated for one hour. After washing, wells were incubated with anti-double strand DNA antibody coupled to peroxidase for one hour. After reaction with peroxidase substrate, absorbance was measured at 405 nm using an ELISA reader. Background values (lysis-buffer alone) were subtracted, and results are shown as enrichment factor [enrichment factor: OD (optical density) of the sample (apoptotic cells) divided by the OD of the corresponding control (viable cells, 10% FBS-group). A defined positive control was prepared using a hypertonic buffer, containing 10 mM Tris, 400 mM NaCl, 5 mM CaCl2 and 10 mM MgCl2, instead of starving medium.

primary rat HSC [3] = test: Morphology and αSMA protein expression (activation of HSCs)
Procedure: as §1
Dislodged cells were centrifuged at 800 x g/10 min and lysed with 100 μl lysis buffer. […] The emitted fluorescence was assessed at 570 nm in a SpectraMax Gemini EM (Molecular Devices, Biberach an der Riß, Germany). […]

Substance: CVI: Human collagen VI isolated from placentas by pepsin digestion; triple helical, soluble
- apoptosis-associated DNA laddering (primary rat HSC [1]): only faint
- suppression of growth factor withdrawal-induced apoptosis (attachment, cell shrinkage) (primary rat HSCs): potently suppressed
- enrichment factor of oligonucleosomal fragments (primary rat HSC [2]; after 24 hours): 2
- enrichment factor of oligonucleosomal fragments (primary rat HSC [2]; after 48 hours): 6
- protein expression of αSMA (primary rat HSC [3]; freshly isolated rat HSCs, immunostaining, detected as early as three days, immunoblotting): strongly induced
- formation of cytoplasmic extensions (primary rat HSC [3]; primary rat HSC, serum-reduced medium containing 1% FBS, five days): induced the formation of distinct cytoplasmic extensions
